Reference: US9730937B2, “RAF kinase modulator compounds and methods of use thereof” (AMBIT BIOSCIENCES CORPORATION, priority 2008, dated 2017)
Structures can show the parent of a compound that is named as a salt. Where two headings read alike, the source gives them in different places.

Key:
mutant BRAF kinase = mutant BRAF kinase (Homo sapiens (Human), UniProt P15056, V600E); settings: read-out: BRAF V600E Kd, class symbols
wild type BRAF kinase = wild type BRAF kinase (Homo sapiens (Human), UniProt P15056); settings: read-out: BRAF WT Kd, class symbols
[1] = tested on: panel of 290 distinct kinases (321 in the larger panel), excluding mutant variants; settings: kinase selectivity score, class symbols
Experimental: The liganded beads were blocked with excess biotin and washed with blocking buffer (SeaBlock (Pierce), 1% BSA, 0.05% Tween 20, 1 mM DTT) to remove unbound ligand and to reduce non-specific binding. […] Test compounds were prepared as 100× stocks in DMSO and rapidly diluted into the aqueous environment. DMSO was added to control assays lacking a test compound. Primary screen interactions were performed in polypropylene 384-well plates in a final volume of 34 μL, while Kd determinations were performed in polystyrene 96-well plates in a final volume of 135 μL. […] The kinase concentration in the eluates was measured by quantitative PCR. Each kinase was tested individually against each compound. KdS were determined using eleven serial threefold dilutions. A selectivity score, which is a quantitative measure of selectivity of a compound against a panel of enzymes, may be calculated for a compound by dividing the number of enzymes for which a compound meets a set criteria, (for example, a binding constant of 100 nM or less), by the total number of enzymes tested. […] (Note, for those compounds tested in a larger kinase panel, as indicated by an asterisk (*) next to the S35 score, the divisor is 321 (i.e. the larger panel contains 321 distinct kinases, excluding mutant variants.)).

RAF kinases = RAF kinases (Homo sapiens (Human), UniProt P04049); settings: read-out: RAF1 Kd, class symbols
[2] = value marked * (larger kinase panel)

Sequence of RAF kinases (P04049 whole entry): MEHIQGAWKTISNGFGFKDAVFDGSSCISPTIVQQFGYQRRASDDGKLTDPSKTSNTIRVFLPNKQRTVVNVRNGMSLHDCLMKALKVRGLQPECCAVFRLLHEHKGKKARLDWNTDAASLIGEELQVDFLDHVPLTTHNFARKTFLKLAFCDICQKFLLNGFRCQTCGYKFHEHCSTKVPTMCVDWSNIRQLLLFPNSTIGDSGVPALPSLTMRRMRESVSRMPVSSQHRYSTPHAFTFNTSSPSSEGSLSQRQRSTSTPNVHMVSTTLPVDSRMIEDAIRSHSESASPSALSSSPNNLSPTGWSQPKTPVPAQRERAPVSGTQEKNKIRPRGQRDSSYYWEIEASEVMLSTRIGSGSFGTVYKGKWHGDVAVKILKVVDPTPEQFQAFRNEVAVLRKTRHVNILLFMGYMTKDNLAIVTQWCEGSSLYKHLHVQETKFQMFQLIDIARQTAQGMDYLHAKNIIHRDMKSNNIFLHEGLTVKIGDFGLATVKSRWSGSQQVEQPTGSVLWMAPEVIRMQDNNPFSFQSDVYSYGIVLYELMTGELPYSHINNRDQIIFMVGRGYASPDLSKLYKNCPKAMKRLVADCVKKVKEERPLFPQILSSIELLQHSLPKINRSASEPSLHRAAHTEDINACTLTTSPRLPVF
Sequence of mutant BRAF kinase (P15056 whole entry V600E): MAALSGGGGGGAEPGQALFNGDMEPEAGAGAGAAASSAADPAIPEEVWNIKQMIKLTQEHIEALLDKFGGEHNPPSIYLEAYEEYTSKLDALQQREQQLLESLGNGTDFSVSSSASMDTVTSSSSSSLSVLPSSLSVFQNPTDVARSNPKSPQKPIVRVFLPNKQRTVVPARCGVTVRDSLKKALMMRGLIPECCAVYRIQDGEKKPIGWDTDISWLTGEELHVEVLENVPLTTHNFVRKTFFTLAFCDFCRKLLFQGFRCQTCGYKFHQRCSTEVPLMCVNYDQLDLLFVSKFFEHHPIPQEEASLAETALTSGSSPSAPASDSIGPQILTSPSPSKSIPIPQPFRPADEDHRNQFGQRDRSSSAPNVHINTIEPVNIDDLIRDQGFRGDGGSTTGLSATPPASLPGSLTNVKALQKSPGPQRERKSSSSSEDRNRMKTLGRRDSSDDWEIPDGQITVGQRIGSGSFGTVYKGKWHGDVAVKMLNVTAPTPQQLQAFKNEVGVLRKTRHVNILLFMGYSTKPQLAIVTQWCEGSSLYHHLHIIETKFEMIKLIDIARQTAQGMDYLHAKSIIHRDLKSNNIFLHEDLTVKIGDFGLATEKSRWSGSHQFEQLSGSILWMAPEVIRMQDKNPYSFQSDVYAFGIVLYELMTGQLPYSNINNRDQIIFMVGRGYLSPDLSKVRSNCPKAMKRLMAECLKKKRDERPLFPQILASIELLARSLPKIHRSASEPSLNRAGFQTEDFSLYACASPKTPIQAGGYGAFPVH
Sequence of wild type BRAF kinase (P15056 whole entry): as the sequence (P15056 whole entry V600E) above, with E600V counted along it

Compound | Kd (mutant BRAF kinase) [nM] | Kd (wild type BRAF kinase) [nM] | S35 ([1]; 290 distinct kinases) | Kd (RAF kinases) [nM] | S35 [1, 2]
COc1cc2ncnc(Oc3cc(NC(=O)Nc4cc(C(C)(C)C)on4)ccc3F)c2cc1OC [Ex 9, 1-(5-tert-butylisoxazol-3-yl)-3-(3-(6,7-dimethoxyquinazolin-4-yloxy)-4-fluorophenyl)urea] | < 250 | > 1000 | D (D > 0.40) |  | 
COCCOc1ccc2ncnc(Oc3cccc(NC(=O)Nc4cc(C(C)(C)C)on4)c3)c2c1 [Ex 40, 1-(5-tert-butylisoxazol-3-yl)-3-(3-(6-(2-methoxyethoxy)quinazolin-4-yloxy)phenyl)urea] | < 250 | > 1000 | C (0.20 < C ≦ 0.40) |  | 
COc1cc2ncnc(Sc3cccc(NC(=O)Nc4ccc(C(F)(F)F)c(OC)c4)c3)c2cc1OC [Ex 190, 1-(3-(6,7-dimethoxyquinazolin-4-ylthio)phenyl)-3-(3-methoxy-4-(trifluoromethyl)phenyl)urea] |  | > 1000 |  | > 1000 | B* (0.10 < B ≦ 0.20)
COc1cc2ncnc(Oc3cccc(NC(=O)Nc4cc(C(C)(C)C)on4)c3)c2cc1O[C@H]1CCN(C(=O)OC(C)(C)C)C1 [Ex 108, (S)-tert-butyl 3-(4-(3-(3-(5-tert-butylisoxazole-3-yl)ureido)phenoxy)-7-methoxyquinazolin-6-yloxy)pyrrolidine-1-carboxylate] |  | > 1000 | C (0.20 < C ≦ 0.40) | > 1000 | 
COc1cc2ncnc(Sc3cccc(NC(=O)Nc4cc(C5(C(F)(F)F)CCC5)no4)c3)c2cc1OC [Ex 156, 1-(3-(6,7-dimethoxyquinazolin-4-ylthio)phenyl)-3-(3-(1-(trifluoromethyl)cyclobutyl)isoxazol-5-yl)urea] |  | > 1000 |  | > 1000 | C* (0.20 < C ≦ 0.40)
COc1cc2c(Oc3cccc(NC(=O)Nc4cc(C(C)(C)C)on4)c3)ncnc2cc1O[C@H]1CCN(CC(F)F)C1 [Ex 103, (S)-1-(5-tert-butylisoxazol-3-yl)-3-(3-{7-[1-(2,2-difluoroethyl)pyrrolidin-3-yloxy]-6-methoxyquinazolin-4-yloxy}phenyl)urea] |  | > 1000 |  | > 1000 | C* (0.20 < C ≦ 0.40)
COc1cc2ncnc(Oc3cccc(NC(=O)Nc4cc(C(C)(C)C)nn4C)c3)c2cc1OC [Ex 158, 1-(3-tert-butyl-1-methyl-1H-pyrazol-5-yl)-3-(3-(6,7-dimethoxyquinazolin-4-yloxy)phenyl)urea] | < 250 | > 1000 |  |  | C* (0.20 < C ≦ 0.40)
CCOc1cc2c(Oc3cccc(NC(=O)Nc4cc(C(C)(C)C)on4)c3)ncnc2cc1OC [Ex 11, 1-(5-tert-butylisoxazol-3-yl)-3-(3-(6-ethoxy-7-methoxyquinazolin-4-yloxy)phenyl)urea] | < 250 | > 1000 | C (0.20 < C ≦ 0.40) |  | 
COc1cc2ncnc(Sc3cccc(NC(=O)Nc4ccc(Cl)c(C(F)(F)F)c4)c3)c2cc1OC [Ex 186, 1-(4-chloro-3-(trifluoromethyl)phenyl)-3-(3-(6,7-dimethoxyquinazolin-4-ylthio)phenyl)urea] |  | > 1000 |  | > 1000 | B* (0.10 < B ≦ 0.20)
COc1cc2ncnc(Oc3cccc(NC(=O)Nc4cc(C(=O)N5CCOCC5)cc(C(F)(F)F)c4)c3)c2cc1OC [Ex 149, 1-(3-(6,7-dimethoxyquinazolin-4-yloxy)phenyl)-3-(3-(morpholine-4-carbonyl)-5-(trifluoromethyl)phenyl)urea] |  | > 1000 |  | > 1000 | B* (0.10 < B ≦ 0.20)
COc1ccc2c(Sc3cccc(NC(=O)Nc4cc(C(C)(C)C)on4)c3)ncnc2c1 [Ex 48, 1-(5-tert-butylisoxazol-3-yl)-3-(3-(7-methoxyquinazolin-4-ylthio)phenyl)urea] |  | > 1000 | C (0.20 < C ≦ 0.40) | > 1000 | 
COCCOc1cc(NC(=O)Nc2cccc(Sc3ncnc4cc(OC)c(OC)cc34)c2)ccc1C(F)(F)F [Ex 148, 1-(3-(6,7-dimethoxyquinazolin-4-ylthio)phenyl)-3-(3-(2-methoxyethoxy)-4-(trifluoromethyl)phenyl)urea] |  | > 1000 |  | > 1000 | B* (0.10 < B ≦ 0.20)
COCCOc1cc2ncnc(Oc3cccc(NC(=O)Nc4cc(C(=O)N5CCOCC5)cc(C(F)(F)F)c4)c3)c2cc1OC [Ex 205, 1-(3-(6-methoxy-7-(2-methoxyethoxy)quinazolin-4-yloxy)phenyl)-3-(3-(morpholine-4-carbonyl)-5-(trifluoromethyl)phenyl)urea] |  | > 1000 |  | > 1000 | C* (0.20 < C ≦ 0.40)
COc1cc2ncnc(Sc3cccc(NC(=O)Nc4cc(C(C)(C)C)on4)c3)c2cc1OCCN1CCCCC1 [Ex 65, 1-(5-tert-butylisoxazol-3-yl)-3-(3-(7-methoxy-6-(2-(piperidin-1-yl)ethoxy)quinazolin-4-ylthio)phenyl)urea] | < 250 | > 1000 | C (0.20 < C ≦ 0.40) |  | 
CC(C)(C)c1cc(NC(=O)Nc2cccc(Sc3ncnc4cc(F)c(F)cc34)c2)no1 [Ex 47, 1-(5-tert-butylisoxazol-3-yl)-3-(3-(6,7-difluoroquinazolin-4-ylthio)phenyl)urea] |  | > 1000 | A (A ≦ 0.10) | > 1000 | 
COc1cc2ncnc(Oc3cccc(NC(=O)Nc4cc(CN5CCOCC5)cc(C(F)(F)F)c4)c3)c2cc1OC [Ex 151, 1-(3-(6,7-dimethoxyquinazolin-4-yloxy)phenyl)-3-(3-(morpholinomethyl)-5-(trifluoromethyl)phenyl)urea] | < 250 | > 1000 |  |  | C* (0.20 < C ≦ 0.40)
COc1cc2ncnc(Sc3cccc(NC(=O)Nc4cc(C(F)(F)F)nn4-c4ccc(F)cc4)c3)c2cc1OC [Ex 198, 1-[3-(6,7-dimethoxyquinazolin-4-ylthio)phenyl]-3-[1-(4-fluorophenyl)-3-(trifluoromethyl)-1H-pyrazol-5-yl]urea] |  | > 1000 |  | > 1000 | C* (0.20 < C ≦ 0.40)
COc1cc2ncnc(Sc3cccc(NC(=O)Nc4cc(C(F)(F)F)nn4-c4ccccc4)c3)c2cc1OC [Ex 192, 1-[3-(6,7-dimethoxyquinazolin-4-ylthio)phenyl]-3-[1-phenyl-3-(trifluoromethyl)-1H-pyrazol-5-yl]urea] |  | > 1000 |  | > 1000 | C* (0.20 < C ≦ 0.40)
CCOC(C)(C)c1cc(NC(=O)Nc2cccc(Oc3ncnc4cc(OC)c(OC)cc34)c2)n(-c2ccccc2)n1 [Ex 168, 1-[3-(6,7-dimethoxyquinazolin-4-yloxy)phenyl]-3-[3-(2-ethoxypropan-2-yl)-1-phenyl-1H-pyrazol-5-yl]urea] |  | > 1000 |  | > 1000 | C* (0.20 < C ≦ 0.40)
CCOc1cc2ncnc(Oc3cccc(NC(=O)Nc4cc(C(C)(C)C)on4)c3)c2cc1OCC [Ex 13, 1-(5-tert-butylisoxazol-3-yl)-3-[3-(6,7-diethoxyquinazolin-4-yloxy)phenyl]urea hydrochloride] |  | > 1000 | C (0.20 < C ≦ 0.40) | > 1000 | 
CCOc1cc2ncnc(Oc3cccc(NC(=O)Nc4cc(C(C)(C)C)on4)c3)c2cc1OC [Ex 6, 1-(5-tert-butylisoxazol-3-yl)-3-[3-(7-ethoxy-6-methoxyquinazolin-4-yloxy)phenyl]urea hydrochloride] | < 250 | > 1000 | D (D > 0.40) |  | 
COc1cc2c(Sc3cccc(NC(=O)Nc4cc(C(C)(C)C)on4)c3)ncnc2cc1OCCN1CCC(CO)CC1 [Ex 86, 1-(5-tert-butylisoxazol-3-yl)-3-(3-(7-(2-(4-(hydroxymethyl)piperidin-1-yl)ethoxy)-6-methoxyquinazolin-4-ylthio)phenyl)urea] |  | > 1000 | C (0.20 < C ≦ 0.40) |  | 
COc1cc2c(Oc3cccc(NC(=O)Nc4cc(C(C)(C)C)on4)c3)ncnc2cc1OCCCN1CCN(CCO)CC1 [Ex 30, 1-(5-tert-butylisoxazol-3-yl)-3-(3-(7-(3-(4-(2-hydroxyethyl)piperazin-1-yl)propoxy)-6-methoxyquinazolin-4-yloxy)phenyl)urea] | < 250 | < 250 | D (D > 0.40) |  | 
COc1cc2ncnc(Oc3cccc(NC(=O)Nc4cc(Cl)cc(C(F)(F)F)c4)c3)c2cc1OC [Ex 140, 1-(3-chloro-5-(trifluoromethyl)phenyl)-3-(3-(6,7-dimethoxyquinazolin-4-yloxy)phenyl)urea] |  | > 1000 | B (0.10 < B ≦ 0.20) |  | 
COc1cc2ncnc(Sc3cccc(NC(=O)Nc4ccc(C(C)(C)C)cc4)c3)c2cc1OC [Ex 174, 1-(4-tert-butylphenyl)-3-(3-(6,7-dimethoxyquinazolin-4-ylthio)phenyl)urea] |  | > 1000 | C (0.20 < C ≦ 0.40) |  | 
COc1cc2ncnc(Oc3cccc(NC(=O)Nc4cc(C(C)(C)C)on4)c3)c2cc1OC [Ex 1, 1-(5-tert-butylisoxazol-3-yl)-3-(3-(6,7-dimethoxyquinazolin-4-yloxy)phenyl)urea] | < 250 | > 1000 | C (0.20 < C ≦ 0.40) |  | 
COCCOc1cc(NC(=O)Nc2cccc(Oc3ncnc4cc(OC)c(OC)cc34)c2)cc(C(F)(F)F)c1 [Ex 129, 1-(3-(6,7-dimethoxyquinazolin-4-yloxy)phenyl)-3-(3-(2-methoxyethoxy)-5-(trifluoromethyl)phenyl)urea] |  | > 1000 | B (0.10 < B ≦ 0.20) |  | 
COc1cc2ncnc(Oc3cccc(NC(=O)Nc4cc(C5CCOCC5)no4)c3)c2cc1OC [Ex 123, 1-(3-(6,7-dimethoxyquinazolin-4-yloxy)phenyl)-3-(3-(tetrahydro-2H-pyran-4-yl)isoxazol-5-yl)urea] |  | > 1000 | B (0.10 < B ≦ 0.20) |  | 
